Common to all, as to type: in vivo, human
Experiment [1] relates to patients having suffered a myocardial infarction. Nature of the experiment: LAMP study (Outcome Death): hazard ratio medication vs no medication, stratified by biomarker quintile. The following applies: LAMP, Outcome Death. An excerpt:
(§1) Suitable threshold levels for the stratification of subjects into different groups (categories) have to be determined for each particular combination of vasoactive hormone or fragments thereof or precursors or fragments thereof, medication and disease. This can e.g. be done by grouping a reference population of patients according to their level of vasoactive hormone into certain quantiles, e.g. tertiles, quartiles, quintiles or even according to suitable percentiles. […] A HR around 1 (e.g. +/−0.1) indicates no elevated risk but also no benefit from medication for the particular group of patients.
(§2) FIGS. 14 to 21 illustrate the survival rate for patients suffering from myocardial infarction from the “Leicester Acute Myocardial Infarction Peptide Study” (“LAMP”). FIGS. 22 to 34 illustrate the rate of major cardiac events for patients suffering from acute myocardial infarction from “LAMP-Study”.
Acute myocardial infarction was subcategorized into ST-segment elevation myocardial infarction (STEMI) or non-ST-segment myocardial infarction (NSTEMI).
Blood samples were drawn on 1 occasion 3 to 5 days after the onset of chest pain. After 15 min bed rest, 20 ml blood was collected into tubes containing ethylendiaminetetraacetic acid (EDTA) and aprotinin. All plasma samples were stored at −70° C. until assayed in a blinded fashion in a single batch.
(§3) Survival rates, i.e. the proportion of patients surviving at a given time after entry into the studies, are plotted in the appended figures over time for different combinations of a particular vasoactive hormone with a particular medication. The patients have been stratified into quintiles according to their respective hormone levels. […] For some cases, two or more quintiles have been pooled were appropriate. Hazard ratios (HR) have been calculated for various combinations of particular vasoactive hormones with particular medications. HR have also been calculated for particular quintiles and/or pooled quintiles and compared to overall HR for each combination.

For experiment [2] the test system is unchanged. The experiment is described as follows: LAMP study (Outcome MACE): hazard ratio medication vs no medication, stratified by biomarker quintile.
From the text: as §1, with “patients. By comparison of the HR between certain quantiles of patients with each other and with the HR of the overall population of patients, it is possible to identify those quantiles of patients who have an elevated risk and those who benefit from medication and thereby stratify subjects according to the present invention.” for “patients.”
as §2
The study involved 983 consecutive patients with acute myocardial infarction (AMI) admitted to the Coronary Care Unit of Leicester Royal Infirmary. […] Acute myocardial infarction was subcategorized into ST-segment elevation myocardial infarction (STEMI) or non-ST-segment myocardial infarction (NSTEMI).
Blood samples were drawn on 1 occasion 3 to 5 days after the onset of chest pain. After 15 min bed rest, 20 ml blood was collected into tubes containing ethylendiaminetetraacetic acid (EDTA) and aprotinin. All plasma samples were stored at −70° C. until assayed in a blinded fashion in a single batch. In a subgroup of 132 patients from the original 983-patient cohort, blood sampling was performed daily for 5 days from admission to discharge.
as §3

The subject of experiment [3] is patients having suffered from ischemic or haemorrhagic stroke or TIA. The experiment is described as follows: COSMOS study: survival (deaths), hazard ratio medication vs no medication, stratified by biomarker quintile. The following applies: for effect of administration at high (higher) levels of vasoactive hormones / effect of administration at low (lower) levels of vasoactive hormones: COSMOS study, summary of Table 2; for HR Medicament Marker-Quintile 1 / HR Medicament Marker-Quintile 2-4 / HR Medicament Marker-Quintile 5 / HR Medicament (overall patient group): COSMOS.
From the text: as §1, with “patients. By comparison of the HR between certain quantiles of patients with each other and with the HR of the overall population of patients, it is possible to identify those quantiles of patients who have an elevated risk and those who benefit from medication and thereby stratify subjects according to the present invention.” for “patients.”
FIGS. 9 to 13 illustrate the survival rate for patients suffering from ischemic stroke, hemorrhagic stroke or transient ischemic attack from the “Copeptin to guide disease severity and Management, Osmostatus and Stress” (“COSMOS”).
The study was set at the emergency and neurological and neurosurgical clinic of the University Hospital of Basel. All consecutive patients who are admitted to the emergency department with an ischemic or hemorrhagic stroke or transient ischemic attack (TIA) according to the World Health Organization criteria with symptom onset within the last 3 days were included into the study. Patients without an informed consent were excluded.
Step 5. In patients with ischemic stroke a telephone follow-up regarding morbidity and mortality (as assessed by the Barthel Index and Ranking Scale) will be obtained after 3 months. An unfavorable outcome will be defined as a Barthel index <85 or modified Ranking scale of 3 to 6. II) Post-Myocardial Infarction (MI) Patients (Leicester Acute Myocardial Infarction Peptide Study (“LAMP”)) Study Population:
as §3
Table 2 lists the results for the patients from the COSMOS study (patients having suffered from ischemic or haemorrhagic stroke or TIA).

Marks after values point to notes of the source that are not given here.

Take `O=C(NCCO[N+](=O)[O-])c1cccnc1` [Nicorandil]: the “HR Medicament in Marker-Quantile 1” value was determined as 4.8 in experiment [1] (NT-proBNP 0.3-204 pg/mL) and 7.1 in experiment [2] (CT-proET-1 4.6-56.6 pmol/L). Besides, the figures for the “HR Medicament in Marker-Quantile 2-4” value in experiment [1] (NT-proBNP 204-3160 pg/mL) and in experiment [2] (CT-proET-1 56.6-118 pmol/L) were under 0.1 and 1.2, respectively. In addition, the “HR Medicament in Marker-Quantile 5” value in experiment [1] (NT-proBNP 3160-11800 pg/mL) amounted to 0.5; in experiment [2] (CT-proET-1 118-671 pmol/L), 0.7. Besides, the “HR Medicament (overall patient group)” value in experiment [1] (biomarker NT-proBNP) was 0.5; in experiment [2] (biomarker CT-proET-1), 1.2.
Consider `COC(=O)[C@H](c1ccccc1Cl)N1CCc2sccc2C1` [Plavix], for which, in experiment [3], the “effect of administration at high (higher) levels of vasoactive hormones” value is recorded as “positive effect” and the “effect of administration at low (lower) levels of vasoactive hormones” value was “unfavourable effect”. For the same compound, the “HR Medicament Marker-Quintile 1” value in experiment [3] (MR-proADM 0.05-0.47 nmol/L) is 1.8. Besides, in experiment [3] (MR-proADM 0.47-0.91 nmol/L), the “HR Medicament Marker-Quintile 2-4” value was 0.2. Further, the “HR Medicament Marker-Quintile 5” value in experiment [3] (MR-proADM 0.91-5.49 nmol/L) was determined as 0.1. Further, the “HR Medicament (overall patient group)” value in experiment [3] (biomarker MR-proADM) is 0.3.
For `CC(=O)Oc1ccccc1C(=O)O` [Acetylsalicylic acid], in experiment [3], the “effect of administration at high (higher) levels of vasoactive hormones” value is recorded as “unfavourable effect”. Moreover, the “effect of administration at low (lower) levels of vasoactive hormones” value in experiment [3] is “positive effect”. Besides, the “HR Medicament Marker-Quintile 5” value in experiment [3] (CT-proAVP 23.5-499 pmol/L) was determined as 2.6; in experiment [3] (CT-proET-1 93.1-368 pmol/L), 2.5; in experiment [3] (MR-proADM 0.91-5.49 nmol/L), 2.4; in experiment [3] (MR-proANP 240-1560 pmol/L), 2.3. For the same compound, the “HR Medicament Marker-Quintile 1” value in experiment [3] (CT-proET-1 4.5-55.5 pmol/L) is reported as 0.5; in experiment [3] (MR-proADM 0.05-0.47 nmol/L) it was 0.6; in experiment [3] (MR-proANP 20.8-71.6 pmol/L), under 0.1. The “HR Medicament Marker-Quintile 2-4” value in experiment [3] (CT-proET-1 55.5-93.1 pmol/L) is given as 1.5; in experiment [3] (MR-proADM 0.47-0.91 nmol/L) it was 0.7; in experiment [3] (MR-proANP 71.6-240 pmol/L), 1.7; in experiment [3] (Quintiles 1 to 4 are pooled, CT-proAVP 0.69-23.5 pmol/L), 0.8*. The “HR Medicament (overall patient group)” value worked out at 1.3 in experiment [3] (biomarker CT-proAVP); 1.4 in experiment [3] (biomarker CT-proET-1); 1 in experiment [3] (biomarker MR-proADM); 1.3 in experiment [3] (biomarker MR-proANP); 0.3 in experiment [1] (biomarker CT-proAVP); 0.3 in experiment [1] (biomarker MR-proADM). For the same compound, the “HR Medicament (overall patient group)” value in experiment [1] (biomarker MR-proANP) and in experiment [1] (biomarker NT-proBNP) was 0.3 throughout. The deaths with medication turned out to be 20 in experiment [3] (FIG. 12A, marker MR-proANP, overall population, n=209 with medication); 0 in experiment [3] (FIG. 12B, 1st MR-proANP quintile (22.3-69.5 pmol/L), n=51 with medication); 6 in experiment [3] (FIG. 12C, 2nd to 4th MR-proANP quintiles (69.5-250 pmol/L), n=124 with medication); 14 in experiment [3] (FIG. 12D, 5th MR-proANP quintile (250-1540 pmol/L), n=34 with medication). The “HR Medicament in Marker-Quantile 1” value in experiment [1] (CT-proAVP 0.31-4.6 pmol/L), in experiment [1] (MR-proADM 0.035-0.47 nmol/L), in experiment [1] (MR-proANP 14.5-59.6 pmol/L) and in experiment [1] (NT-proBNP 0.12-184 pg/mL) was over 100 in each case. For the same compound, the “HR Medicament in Marker-Quantile 2-4” value in experiment [1] (CT-proAVP 4.6-42.1 pmol/L) is recorded as 0.4; in experiment [1] (MR-proADM 0.47-1.18 nmol/L) it was 0.5; in experiment [1] (MR-proANP 59.6-283 pmol/L), 0.4; in experiment [1] (NT-proBNP 184-2700 pg/mL) it was 0.3. Moreover, the “HR Medicament in Marker-Quantile 5” value was determined as 0.3 in experiment [1] (CT-proAVP 42.1-1040 pmol/L), 0.3 in experiment [1] (MR-proADM 1.18-6.75 nmol/L), 0.4 in experiment [1] (MR-proANP 283-1650 pmol/L) and 0.5 in experiment [1] (NT-proBNP 2700-34100 pg/mL).

The values above are taken from patent US9229013B2, “Vasoactive hormone-based stratification of patients suffering from diseases related to endothelial function/dysfunction” (B.R.A.H.M.S GMBH, priority 2009, dated 2016).
